This is an account of results in ChEMBL document CHEMBL1201862, “PubChem BioAssay data set” (2004).

Broadly, the EC50 is the concentration needed to bring the measured effect to its halfway point. By AC50 is commonly meant the midpoint of the concentration-response curve, whichever way the signal moves. One may read the IC50 as the concentration at which inhibition is half-maximal.

SMILES strings stand for the structures. Values joined by “and” are separate entries in the source; they are usually repeats but may differ in a detail not shown here. Identical values can stand only once. Active and inactive are the calls of the source.

The target in assay [1] is T1, RNA-binding protein pos-1 (Caenorhabditis elegans, UniProt G5EF15).
T1 sequence (G5EF15 whole entry): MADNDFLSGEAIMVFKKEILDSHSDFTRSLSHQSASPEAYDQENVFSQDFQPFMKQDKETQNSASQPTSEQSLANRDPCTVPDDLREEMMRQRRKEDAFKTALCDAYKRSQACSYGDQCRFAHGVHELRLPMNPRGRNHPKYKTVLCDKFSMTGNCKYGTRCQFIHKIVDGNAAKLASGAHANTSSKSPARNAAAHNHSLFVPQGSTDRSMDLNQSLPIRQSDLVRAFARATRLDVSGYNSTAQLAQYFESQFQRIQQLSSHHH
Kind of assay: disruptors of C. elegans POS-1 RNA interaction – biochemical, fluorescence polarization, dose response (AID 1964).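 Further: purified POS-1 fused to maltose binding protein made in E. coli; potency of compounds blocking POS-1 binding to fluorescent RNA.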 In general terms: Polarisation of emitted light reports the rotation of a fluorescent probe.

Assay [2] addresses T2, Zinc finger protein mex-5 (Caenorhabditis elegans, UniProt Q9XUB2).
T2 sequence (Q9XUB2 whole entry): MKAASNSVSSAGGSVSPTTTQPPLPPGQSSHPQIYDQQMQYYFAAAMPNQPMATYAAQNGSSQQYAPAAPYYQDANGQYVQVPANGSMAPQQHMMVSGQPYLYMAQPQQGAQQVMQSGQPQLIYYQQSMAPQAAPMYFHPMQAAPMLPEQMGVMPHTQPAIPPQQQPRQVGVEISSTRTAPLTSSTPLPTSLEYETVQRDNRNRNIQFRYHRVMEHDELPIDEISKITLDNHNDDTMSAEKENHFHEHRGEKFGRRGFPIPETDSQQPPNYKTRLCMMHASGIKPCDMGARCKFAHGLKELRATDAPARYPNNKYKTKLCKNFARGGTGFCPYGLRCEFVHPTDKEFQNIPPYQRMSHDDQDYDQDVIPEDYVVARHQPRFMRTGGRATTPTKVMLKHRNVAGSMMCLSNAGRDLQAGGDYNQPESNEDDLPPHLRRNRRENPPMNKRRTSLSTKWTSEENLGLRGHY
The experiment in a line: potency of MEX-5 RNA-binding blockers – biochemical, C. elegans, fluorescence polarization, dose response (AID 1960).

For the next assay, the target named is Cytochrome P450 2D6 (Homo sapiens, UniProt P10635).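 Further: CYP2D6 member of a cytochrome P450 panel assay.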
Chain of Cytochrome P450 2D6 (P10635 whole entry): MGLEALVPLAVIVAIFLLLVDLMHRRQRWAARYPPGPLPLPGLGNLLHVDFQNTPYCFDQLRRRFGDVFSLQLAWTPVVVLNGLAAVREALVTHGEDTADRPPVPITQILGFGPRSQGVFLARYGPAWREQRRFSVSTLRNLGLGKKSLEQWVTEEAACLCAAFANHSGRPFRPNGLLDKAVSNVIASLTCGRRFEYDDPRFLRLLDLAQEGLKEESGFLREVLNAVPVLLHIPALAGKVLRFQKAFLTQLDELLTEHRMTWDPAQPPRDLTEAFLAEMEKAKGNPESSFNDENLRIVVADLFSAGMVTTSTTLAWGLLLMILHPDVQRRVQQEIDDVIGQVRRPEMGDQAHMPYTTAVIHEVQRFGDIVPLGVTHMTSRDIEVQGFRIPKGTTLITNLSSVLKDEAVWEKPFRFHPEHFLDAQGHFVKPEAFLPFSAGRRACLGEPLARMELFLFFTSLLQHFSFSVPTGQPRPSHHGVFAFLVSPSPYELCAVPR
The target in another assay is T3, Cytochrome P450 1A2 (Homo sapiens, UniProt P05177).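 Further: PubChem cytochrome P450 panel assay, CYP1A2 panel member.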
T3 sequence (P05177 whole entry): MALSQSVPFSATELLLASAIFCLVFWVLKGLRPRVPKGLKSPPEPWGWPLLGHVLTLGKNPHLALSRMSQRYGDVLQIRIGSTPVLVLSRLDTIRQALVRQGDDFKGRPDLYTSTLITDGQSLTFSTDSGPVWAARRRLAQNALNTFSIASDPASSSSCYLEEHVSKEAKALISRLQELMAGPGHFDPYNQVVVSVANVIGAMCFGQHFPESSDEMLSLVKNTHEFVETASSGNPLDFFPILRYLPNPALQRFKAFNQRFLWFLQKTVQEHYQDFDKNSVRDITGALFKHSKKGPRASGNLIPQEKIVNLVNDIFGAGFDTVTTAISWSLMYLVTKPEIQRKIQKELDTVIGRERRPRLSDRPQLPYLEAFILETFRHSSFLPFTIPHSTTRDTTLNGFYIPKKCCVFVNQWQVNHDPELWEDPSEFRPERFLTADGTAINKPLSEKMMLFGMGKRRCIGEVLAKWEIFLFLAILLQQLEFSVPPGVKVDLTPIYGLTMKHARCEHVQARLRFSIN

Assay [3] concerns the target T4, Replicative DNA helicase DnaB (Mycobacterium tuberculosis, UniProt P9WMR3).
T4 sequence (P9WMR3 whole entry): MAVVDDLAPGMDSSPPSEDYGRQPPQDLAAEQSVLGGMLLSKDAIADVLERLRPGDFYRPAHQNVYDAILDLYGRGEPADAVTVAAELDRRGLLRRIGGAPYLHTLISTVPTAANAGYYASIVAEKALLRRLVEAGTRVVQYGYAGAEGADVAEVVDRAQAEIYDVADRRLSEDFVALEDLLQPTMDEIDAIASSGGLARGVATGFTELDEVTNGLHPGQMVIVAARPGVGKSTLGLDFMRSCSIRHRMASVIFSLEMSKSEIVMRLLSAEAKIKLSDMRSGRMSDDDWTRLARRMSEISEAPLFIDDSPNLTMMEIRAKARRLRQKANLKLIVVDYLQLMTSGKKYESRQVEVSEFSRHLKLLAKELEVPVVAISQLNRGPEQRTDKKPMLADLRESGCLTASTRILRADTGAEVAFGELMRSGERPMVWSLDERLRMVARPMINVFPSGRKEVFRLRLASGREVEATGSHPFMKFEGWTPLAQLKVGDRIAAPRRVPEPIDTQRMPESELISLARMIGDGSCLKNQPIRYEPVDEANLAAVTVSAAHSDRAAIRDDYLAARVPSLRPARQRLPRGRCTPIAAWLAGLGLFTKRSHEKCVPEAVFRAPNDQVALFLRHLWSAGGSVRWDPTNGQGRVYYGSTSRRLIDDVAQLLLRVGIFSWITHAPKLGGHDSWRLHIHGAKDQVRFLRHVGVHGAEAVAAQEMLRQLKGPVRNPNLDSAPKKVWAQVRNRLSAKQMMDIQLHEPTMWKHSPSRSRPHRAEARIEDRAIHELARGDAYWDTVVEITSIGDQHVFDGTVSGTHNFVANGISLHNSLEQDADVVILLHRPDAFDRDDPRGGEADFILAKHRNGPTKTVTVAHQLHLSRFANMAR
The experiment in a line: DnaB intein splicing inhibitors, dose response, biochemical, cell-free fluorescence (AID 449749). Format: functional.

In another assay the target is T5, Protein RecA (Mycobacterium tuberculosis, UniProt P9WHJ3).
T5 sequence (P9WHJ3 whole entry): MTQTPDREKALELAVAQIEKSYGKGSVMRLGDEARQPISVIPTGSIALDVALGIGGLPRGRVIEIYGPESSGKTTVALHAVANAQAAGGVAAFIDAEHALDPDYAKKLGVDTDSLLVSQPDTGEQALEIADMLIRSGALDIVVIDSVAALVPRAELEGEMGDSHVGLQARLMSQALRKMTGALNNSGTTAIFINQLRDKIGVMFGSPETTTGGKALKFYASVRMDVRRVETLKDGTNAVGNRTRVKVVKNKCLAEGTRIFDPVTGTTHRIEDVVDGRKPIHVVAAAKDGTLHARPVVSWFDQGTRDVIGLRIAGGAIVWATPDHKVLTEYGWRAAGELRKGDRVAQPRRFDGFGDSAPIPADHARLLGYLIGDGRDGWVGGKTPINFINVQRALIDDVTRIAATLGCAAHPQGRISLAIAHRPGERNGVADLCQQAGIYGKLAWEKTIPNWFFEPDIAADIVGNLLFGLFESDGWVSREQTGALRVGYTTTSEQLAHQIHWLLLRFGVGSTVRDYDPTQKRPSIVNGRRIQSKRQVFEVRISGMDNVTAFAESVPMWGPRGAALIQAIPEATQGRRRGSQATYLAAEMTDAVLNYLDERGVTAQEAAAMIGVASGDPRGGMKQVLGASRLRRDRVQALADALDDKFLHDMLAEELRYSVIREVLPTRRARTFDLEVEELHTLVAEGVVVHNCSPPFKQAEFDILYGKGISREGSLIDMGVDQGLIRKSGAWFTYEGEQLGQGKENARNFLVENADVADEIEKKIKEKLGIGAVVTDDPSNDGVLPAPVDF
The experiment in a line: Fluorescence Cell-Free Homogeneous Dose Retest to Identify Inhibitors of RecA-Intein Splicing Activity. [Related pubchem assays (depositor defined):AID2097, AID2223, AID489010, AID492950]. It is filed as functional.

For another assay, the target named is Cytochrome P450 2C9 (Homo sapiens, UniProt P11712).
Chain of Cytochrome P450 2C9 (P11712 whole entry): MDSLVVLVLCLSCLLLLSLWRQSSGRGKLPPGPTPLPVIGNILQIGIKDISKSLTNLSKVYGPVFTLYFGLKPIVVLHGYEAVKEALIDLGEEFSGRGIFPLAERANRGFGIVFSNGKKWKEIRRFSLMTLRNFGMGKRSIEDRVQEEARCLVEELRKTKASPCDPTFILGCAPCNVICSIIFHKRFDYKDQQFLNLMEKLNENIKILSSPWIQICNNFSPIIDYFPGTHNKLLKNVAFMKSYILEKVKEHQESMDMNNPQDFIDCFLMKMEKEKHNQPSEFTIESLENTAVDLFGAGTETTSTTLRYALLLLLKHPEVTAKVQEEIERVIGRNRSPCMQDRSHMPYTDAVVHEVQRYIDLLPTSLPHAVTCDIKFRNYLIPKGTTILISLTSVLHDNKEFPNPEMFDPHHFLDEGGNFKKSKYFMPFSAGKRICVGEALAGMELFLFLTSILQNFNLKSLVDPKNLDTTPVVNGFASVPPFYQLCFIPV
Another assay can be described thus: cells. Format: functional.

For the molecule `CSCC(C)N1CCC(N2CCC(C(=O)NCc3ccccn3)CC2)CC1` (centres undefined), the concentration for a half-maximal effect (EC50) in assay [1] is 161 µM (active); in assay [2], > 300 µM (not active).
For `CC[C@H](C)C(=O)O[C@H]1CCC=C2C=C[C@H](C)[C@H](CC[C@@H]3C[C@H](O)CC(=O)O3)[C@H]21`, the AC50 at Cytochrome P450 2D6 and on Cytochrome P450 1A2 was 31.6 µM (inconclusive) each time.
As to `CCn1nc(C)c(C2C(C#N)=C(N)Oc3[nH]nc(C)c32)c1C` (centres undefined), in assay [3], the AC50 is 88.9 µM (active). The EC50 at Protein RecA is 12.5 µM (active).
As to `COc1ccc2c(c1OC)C(=O)O[C@H]2[C@H]1c2cc3c(cc2CCN1C)OCO3` [1R,9S-HYDRASTINE], on Cytochrome P450 2C9, the AC50 is 1.58 nM (inconclusive) and 15.8 µM (inconclusive).
With `CCCc1nc(SCC(=O)N2CCc3ccccc3C2)c2ccccc2n1`, the AC50 in assay [3] was 14.1 µM (active). For the same molecule, the half-maximal effective concentration (EC50) on Protein RecA was 14.6 µM (active).
On to `C/C(=N/Nc1ccc2ccccc2n1)c1ccccc1O`, for which the AC50 on Cytochrome P450 2C9 is 2.51 µM (inconclusive).
Take `N#CC(C(=O)NCc1ccco1)c1nc2ccccc2nc1N1CCOCC1` (centres undefined): in “cells”, the IC50 was 49 µM (active).
`Cc1c(NC(=O)C(Sc2ccccc2)c2ccccc2)cccc1[N+](=O)[O-]` (centres undefined): the AC50 on Cytochrome P450 2D6 was 3.16 µM (inconclusive).
Regarding `Cc1ccccc1CSCCN=C(S)Nc1ccccc1`, the 50% effective concentration (EC50) in assay [1] and in assay [2] was > 300 µM (not active) in each case.
With `CCCCCC(=O)Nc1cccc(-c2nc3ncccc3o2)c1`, the AC50 on Cytochrome P450 2D6 was 22.4 µM (inconclusive).
For the molecule `O=C1c2ccccc2C(=O)N1CCCCN(C(=O)c1ccc([N+](=O)[O-])cc1)c1ccc(Cl)cc1`, the AC50 on Cytochrome P450 2D6 was 15.8 µM (inconclusive).
For `O=S(=O)(Nc1cccnc1Cl)c1ccc2c(c1)OCCO2`, the AC50 on Cytochrome P450 2C9 is 15.8 µM (inconclusive).
For `CCc1c2c(nc3cccc(SC)c13)COC2`, the AC50 on Cytochrome P450 2D6 is 39.8 µM (inconclusive).
For the molecule `Cc1cccc(NC(=O)COC(=O)CCc2c[nH]c3ccccc23)c1`, in the assay “cells”, the IC50 is 0.71 µM (active).
For `CC1C(=O)NN=C1C(=O)N/N=C/c1ccco1` (centres undefined), the EC50 in assay [1] and in assay [2] was > 300 µM (not active) in each case.
On to `Cc1ccc2oc(=O)c3cc(C(=O)NCCCN4CCCCCC4)sc3c2c1`, for which, in “cells”, the IC50 was > 50 µM (active).
In the case of `CC1(CCl)[N+]([O-])=C2CCCCC2=[N+]1[O-]`, the EC50 in assay [1] is > 300 µM (not active); in assay [2] it was 121 µM (active).
In the case of `CCN1C=CC2=C(C#N)C(N)C(C#N)(C#N)C(c3ccccc3C(F)(F)F)C2C1` (centres undefined), the figures for the EC50 in assay [1] and in assay [2] were 260 µM (inconclusive) and > 300 µM (not active), respectively.
Take `Cc1ccccc1OCCN=C(S)Nc1ccccc1`: the AC50 on Cytochrome P450 1A2 was 3.16 µM (inconclusive); on Cytochrome P450 2C9 it was 10 µM (inconclusive).
On to `c1ccc(CN2CCC3(CCNCC3)CC2)cc1`, for which the AC50 on Cytochrome P450 2C9 was 25.1 µM (inconclusive).
For the molecule `COc1ccccc1-c1cc(Nc2ccc(F)cc2)ncn1`, the AC50 on Cytochrome P450 2D6 is 39.8 µM (inconclusive).
Take `O=C(C/C=N/OCc1ccc(Cl)cc1Cl)c1ccc(Cl)cc1`: the AC50 at Cytochrome P450 2D6 and on Cytochrome P450 2C9 was 17.8 µM (inconclusive) throughout.
`O=C(O)c1cc(Cl)c2c(c1)[C@@H]1C=CC[C@@H]1[C@H](c1ccc(S(=O)(=O)N3CCOCC3)cc1)N2`: the values for the EC50 in assay [1] and in assay [2] were > 300 µM (not active) and 29.7 µM (active), respectively.
On to `Cc1cc(NCc2ccccn2)ccc1Br`, for which the AC50 on Cytochrome P450 2C9 is 7.08 µM (inconclusive).
As to `CC1(C)N=C(SCC(=O)Nc2ccc(Cl)cc2Cl)C(c2ccccc2)=N1`, the AC50 in assay [3] is 10.7 µM (active). The EC50 at Protein RecA was 17.7 µM (active).
With `N#Cc1ccccc1-c1ccc2ncnc(NCCN3CCOCC3)c2c1`, on Cytochrome P450 2D6, the AC50 was 39.8 µM (inconclusive).
`O=C(Cc1ccccc1)NNC(=O)c1cnccn1`: the EC50 in assay [1] is > 300 µM (not active); in assay [2], 41.4 µM (active).
As for `COC(=O)COc1ccc2c(=O)c(-c3ccccc3)coc2c1`, the IC50 in the assay “cells” was < 0.1 µM (active).
With `CN(C)/C=C/C(=O)c1ccc2noc(-c3ccc(F)cc3)c2c1`, the AC50 in assay [3] was > 380 µM (inactive). The EC50 at Protein RecA is > 380 µM (inactive).
On to `CCCC(CCC)C(=O)NNc1cc(O)c2c(=O)n(C)c(=O)n(C)c2n1`, for which the concentration at half-maximal activity (AC50) at Cytochrome P450 2C9 is 0.178 µM (inconclusive).
